In patent publication US12595230B2, “Substituted 6,7-dihydro-5H-benzo[7]annulene compounds and their derivatives, processes for their preparation and therapeutic uses thereof” (Sanofi, priority 2020, dated 2026):
pIC50: −log10 of the molar value.

Target: T1, ERα (Homo sapiens, UniProt P03372)
T1 construct: host or cells: MCF7
T1 sequence (P03372 1-595): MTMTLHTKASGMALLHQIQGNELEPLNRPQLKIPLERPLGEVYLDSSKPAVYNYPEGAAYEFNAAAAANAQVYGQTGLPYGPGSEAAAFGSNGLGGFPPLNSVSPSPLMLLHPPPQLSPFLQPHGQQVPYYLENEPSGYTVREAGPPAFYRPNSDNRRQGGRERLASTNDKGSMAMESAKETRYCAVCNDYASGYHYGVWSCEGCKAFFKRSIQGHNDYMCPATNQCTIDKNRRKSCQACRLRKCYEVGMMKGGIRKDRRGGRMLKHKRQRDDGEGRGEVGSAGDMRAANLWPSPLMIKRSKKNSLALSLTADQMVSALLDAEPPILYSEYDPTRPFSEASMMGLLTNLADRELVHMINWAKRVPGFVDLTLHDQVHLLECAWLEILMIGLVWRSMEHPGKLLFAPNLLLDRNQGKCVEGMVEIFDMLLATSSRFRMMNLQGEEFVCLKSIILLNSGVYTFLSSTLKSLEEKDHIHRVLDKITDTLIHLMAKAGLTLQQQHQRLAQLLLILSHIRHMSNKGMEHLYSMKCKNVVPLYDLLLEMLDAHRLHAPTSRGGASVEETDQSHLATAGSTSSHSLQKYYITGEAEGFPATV
Assay: Estrogen receptor degradation activity: breast cancer cell ERα in cell western assay (MCF7 cells)
Type: cell-based
Conditions: for % Degradation At 0.3 μM: 4 hours, relative to fulvestrant 0.1 μM positive control; for DC50: read-out: Degradation IC50
Method in brief: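 Compounds were applied to MCF7 cells in stripped-serum, phenol red-free medium for 4 h at final 0.3–0.0000018 μM, with fulvestrant (0.1 μM) as control. Value: IC50 (nM) for 50% ERα degradation.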

[1] = 4 hours post compound addition, concentration which degrades 50% of the estrogen receptor

% Degradation At 0.3 μM	DC50 [1]	pIC50 [1]	Structure (SMILES)
91%	0.4 nM		O=C(O)c1ccc2c(c1)CCCC(c1cccc3c1CC3)=C2c1ccc(CC2CN(CCCF)C2)cc1 [Example 53, 8-(bicyclo[4.2.0]octa-1(6),2,4-trien-2-yl)-9-(4-((1-(3-fluoropropyl)azetidin-3-yl)methyl)phenyl)-6,7-dihydro-5H-benzo[7]annulene-3-carboxylic acid]
85%	0.4 nM		O=C(O)c1ccc2c(c1)CCCC(c1ccc(F)cc1C(F)(F)F)=C2c1ccc(CC2CN(CCC(F)F)C2)cc1 [Example 276, 9-(4-((1-(3,3-difluoropropyl)azetidin-3-yl)methyl)phenyl)-8-(4-fluoro-2-(trifluoromethyl)phenyl)-6,7-dihydro-5H-benzo[7]annulene-3-carboxylic acid]
80%	0.8 nM		C[C@H]1CC[C@@H](C2=C(c3ccc(CC4CN(CCCF)C4)cc3)c3ccc(C(=O)O)cc3CCC2)CC1 [Example 14, 9-(4-((1-(3-fluoropropyl)azetidin-3-yl)methyl)phenyl)-8-((1s,4s)-4-methylcyclohexyl)-6,7-dihydro-5H-benzo[7]annulene-3-carboxylic acid]
62%	4.5 nM		CC(O)(c1ccc(C2=C(c3ccc(Cl)cc3Cl)CCCc3cc(C(=O)O)ccc32)cc1)C1CN(CCCF)C1.Cl (single isomer, unassigned; isomer 1) [Example 235, 8-(2,4-dichlorophenyl)-9-(4-(1-(1-(3-fluoropropyl)azetidin-3-yl)-1-hydroxyethyl)phenyl)-6,7-dihydro-5H-benzo[7]annulene-3-carboxylic acid, Hydrochloride Isomer 1]
86%	0.4 nM		Cc1cc(Cl)ccc1C1=C(c2ccc(CC3CN(CCC(F)F)C3)cc2)c2ccc(C(=O)O)cc2CCC1 [Example 282, 8-(4-chloro-2-methylphenyl)-9-(4-((1-(3,3-difluoropropyl)azetidin-3-yl)methyl)phenyl)-6,7-dihydro-5H-benzo[7]annulene-3-carboxylic acid]
85%	0.5 nM		Cc1cc(CC2CN(CCCF)C2)ccc1C1=C(c2ccc(Cl)cc2Cl)CCCc2cc(C(=O)O)ccc21 [Example 240, 8-(2,4-dichlorophenyl)-9-(4-((1-(3-fluoropropyl)azetidin-3-yl)methyl)-2-methylphenyl)-6,7-dihydro-5H-benzo[7]annulene-3-carboxylic acid]
86%	0.7 nM		O=C(O)c1ccc2c(c1)CCCC(c1cc(CC(F)(F)F)ccc1F)=C2c1ccc(CC2CN(CCCF)C2)cc1 [Example 295, 8-(2-fluoro-5-(2,2,2-trifluoroethyl)phenyl)-9-(4-((1-(3-fluoropropyl)azetidin-3-yl)methyl)phenyl)-6,7-dihydro-5H-benzo[7]annulene-3-carboxylic acid]
91%	0.4 nM		O=C(O)c1ccc2c(c1)CCCC(c1ccc(Cl)cc1Cl)=C2c1ccc(C(F)(F)C2CN(CCCF)C2)cc1 [Example 40, 8-(2,4-dichlorophenyl)-9-(4-(difluoro(1-(3-fluoropropyl)azetidin-3-yl)methyl)phenyl)-6,7-dihydro-5H-benzo[7]annulene-3-carboxylic acid]
84%	0.8 nM		O=C(O)c1ccc2c(c1)CCCC(c1ncc(Cl)cc1C(F)(F)F)=C2c1ccc(CC2CN(CCC(F)F)C2)cc1 [Example 291, 8-(5-chloro-3-(trifluoromethyl)pyridin-2-yl)-9-(4-((1-(3,3-difluoropropyl)azetidin-3-yl)methyl)phenyl)-6,7-dihydro-5H-benzo[7]annulene-3-carboxylic acid]
73%	9 nM		O=C(O)c1ccc2c(c1)CCCC(Cc1ccccc1)=C2c1ccc(CC2CN(CCCF)C2)cc1 [Example 311, 8-benzyl-9-(4-((1-(3-fluoropropyl)azetidin-3-yl)methyl)phenyl)-6,7-dihydro-5H-benzo[7]annulene-3-carboxylic acid]
89%	0.5 nM		COc1nc(C(F)(F)F)ccc1C1=C(c2ccc(CC3CN(CCCF)C3)cc2)c2ccc(C(=O)O)cc2CCC1 [Example 268, 9-(4-((1-(3-fluoropropyl)azetidin-3-yl)methyl)phenyl)-8-(2-methoxy-6-(trifluoromethyl)pyridin-3-yl)-6,7-dihydro-5H-benzo[7]annulene-3-carboxylic acid]
79%	0.2 nM		O=C(O)c1ccc2c(c1)CCCC(c1c(Cl)cccc1C(F)(F)F)=C2c1ccc(CC2CN(CCCF)C2)cc1 [Example 34, 8-(2-chloro-6-(trifluoromethyl)phenyl)-9-(4-((1-(3-fluoropropyl)azetidin-3-yl)methyl)phenyl)-6,7-dihydro-5H-benzo[7]annulene-3-carboxylic acid]
90%	0.4 nM		Cc1cc2c(cc1C(=O)O)CCCC(c1ccc(Cl)cc1Cl)=C2c1ccc(CC2CN(CCCF)C2)cc1 [Example 249, 8-(2,4-dichlorophenyl)-9-(4-((1-(3-fluoropropyl)azetidin-3-yl)methyl)phenyl)-2-methyl-6,7-dihydro-5H-benzo[7]annulene-3-carboxylic acid]
95%	1.6 nM		O=C(O)c1ccc2c(c1)CCCC(c1ccc(Cl)cc1Cl)=C2c1ccc(C(O)C2CN(CCCF)C2)cc1 (single isomer, unassigned) [Example 41, 8-(2,4-dichlorophenyl)-9-(4-((1-(3-fluoropropyl)azetidin-3-yl)(hydroxy)methyl)phenyl)-6,7-dihydro-5H-benzo[7]annulene-3-carboxylic acid]
84%	0.4 nM		O=C(O)c1ccc2c(c1)CCCC(c1ccc(F)cc1F)=C2c1ccc(CC2CN(CCC(F)F)C2)cc1 [Example 281, 8-(2,4-difluorophenyl)-9-(4-((1-(3,3-difluoropropyl)azetidin-3-yl)methyl)phenyl)-6,7-dihydro-5H-benzo[7]annulene-3-carboxylic acid]
89%	0.7 nM		O=C(O)c1ccc2c(c1)CCCC(C1CC3(C1)CC(F)(F)C3)=C2c1ccc(CC2CN(CCCF)C2)cc1 [Example 51, 8-(6,6-difluorospiro[3.3]heptan-2-yl)-9-(4-((1-(3-fluoropropyl)azetidin-3-yl)methyl)phenyl)-6,7-dihydro-5H-benzo[7]annulene-3-carboxylic acid]
76%	0.6 nM		COC(c1ccc(C2=C(c3ccc(Cl)cc3Cl)CCCc3cc(C(=O)O)ccc32)cc1)C1CN(CCCF)C1 (single isomer, unassigned; isomer 2) [Example 228, 8-(2,4-dichlorophenyl)-9-(4-((1-(3-fluoropropyl)azetidin-3-yl)(methoxy)methyl)phenyl)-6,7-dihydro-5H-benzo[7]annulene-3-carboxylic Acid Isomer 2]
85%	1.2 nM		Oc1c(F)cc2c(c1F)CCCC(c1ccc(Cl)cc1Cl)=C2c1ccc(CC2CN(CCCF)C2)cc1 [Example 305, 8-(2,4-dichlorophenyl)-2,4-difluoro-9-(4-((1-(3-fluoropropyl)azetidin-3-yl)methyl)phenyl)-6,7-dihydro-5H-benzo[7]annulen-3-ol]
92%		9.70	O=C(O)c1ccc2c(c1)CCCC(CC1CCC1)=C2c1ccc(CC2CN(CCCF)C2)cc1 [Example 294, 8-(cyclobutylmethyl)-9-(4-((1-(3-fluoropropyl)azetidin-3-yl)methyl)phenyl)-6,7-dihydro-5H-benzo[7]annulene-3-carboxylic acid]
90%	0.6 nM		O=C(O)c1ccc2c(c1)CCCC(c1ccc(F)cc1CC(F)(F)F)=C2c1ccc(CC2CN(CCCF)C2)cc1 [Example 272, 8-(4-fluoro-2-(2,2,2-trifluoroethyl)phenyl)-9-(4-((1-(3-fluoropropyl)azetidin-3-yl)methyl)phenyl)-6,7-dihydro-5H-benzo[7]annulene-3-carboxylic acid]
92%	0.4 nM		Cl.O=C(O)c1ccc2c(c1)CCCC(c1ccc(F)cc1Cl)=C2c1ccc(CC2CN(CCCF)C2)cc1 [Example 8, 8-(2-chloro-4-fluorophenyl)-9-(4-((1-(3-fluoropropyl)azetidin-3-yl)methyl)phenyl)-6,7-dihydro-5H-benzo[7]annulene-3-carboxylic acid]
88%	11.2 nM		O=C(O)c1ccc2c(c1)CCCC(c1nc(Cl)ccc1C(F)(F)F)=C2c1ccc(CC2CN(CCCF)C2)cc1 [Example 300, 8-(6-chloro-3-(trifluoromethyl)pyridin-2-yl)-9-(4-((1-(3-fluoropropyl)azetidin-3-yl)methyl)phenyl)-6,7-dihydro-5H-benzo[7]annulene-3-carboxylic acid]
